Data reported in patent US12168651B1, “9-(6-flouro-2-hydroxypyridin-3-yl)-10-(2-hydroxyethyl)-3,6-diphenyl-3,4,6,7,9,10-hexahydroacridine1,8(2H,5H)-dione as an antimicrobial compound” (KING FAISAL UNIVERSITY, priority 2023, dated 2024).

Legend:
Format in all cases: cell-based
Conditions in all cases: after 10, 20, 40 and 60 minutes at all dilutions 1:100, 1:200, 1:400, 1:800
Escherichia coli = assay: Antimicrobial screening by agar dilution, E. Coli
Experimental: (§1) The antibacterial properties of the synthesized compound (9-(6-flouro-2-hydroxypyridin-3-yl)-10-(2-hydroxyethyl)-3,6-diphenyl-3,4,6,7,9,10-hexahydroacridine1,8(2H,5H)-dione) were studied by the method of agar dilution. Test solutions of each compound was prepared in concentration of 1% using dimethylformamide as a solvent then they are diluted in physiological solution to obtain the final experimental dilutions 1:100, 1:200, 1:400, 1:800. The effect of these substances are compared with furacillin in a controllable study. The testing microbes used were gram positive bacteria Staphylococcus aureus, gram negative bacteria Pseudomonas aeruginosa and Escherichia coli and Candida albicans fungus. The experiments used for this survey were meat-pentonlu agar (EPA) for cultivation of bacteria and Saburo environment for the fungus. Each experiment used 1 mL of test solution on each plate […]. Two drops of emulsified with microbes feel were added. All experimental samples were taken from the agar after 10, 20, 40, 60 minutes in the environment on the basis of Patrk planted. The bacteria were cultivated at a temperature of 37° C. for 1 day and the mushroom was kept in a thermostat for […] at a temperature of 28° C. Then results were checked.

Staphylococcus aureus = assay: Antimicrobial screening by agar dilution, St. Aereus
Experimental: as §1

Candida albicans = assay: Antimicrobial screening by agar dilution, Candida albicans
Experimental: as §1

Pseudomonas aeruginosa = assay: Antimicrobial screening by agar dilution, Ps. Aeroqonaza
Experimental: as §1

Measured: inhibition activity (in words)

O=C1CC(c2ccccc2)CC2=C1C(c1cc3cc(F)ccc3nc1O)C1=C(CC(c3ccccc3)CC1=O)N2CCO (stereo not shown)
the most higher inhibition activity: Escherichia coli | Staphylococcus aureus | Candida albicans | Pseudomonas aeruginosa
